# Data published in patent US6524805B1 (priority 1997, dated 2003).
# Values joined by “and” are separate entries in the source; they are usually repeats but may differ in a detail not shown here. Equal entries are not always repeated. Where two headings read alike, the source gives them in different places.
# Columns and labels:
# mu3 opiate receptor [1] = target: T1, mu3 opiate receptor (Homo sapiens, UniProt P35372); assay type: cell-based
# T1 construct: aliquots of membrane suspensions from human granulocytes and lung non-small cell carcinoma; from tissue; host or cells: human granulocytes, human monocytes, normal lung, non-small cell lung carcinoma tissue, vascular tissue
# Procedure: The system was calibrated daily using different concentrations of the nitrosothiol donor S-nitroso-N-acetyl-DL-penicillamine (SNAP; Sigma, St. Louis, Mo.) to generate a standard curve. The concentration of NO gas in solution was measured in real-time with the DUO 18 computer data acquisition system (World Precision Instruments). Each experiment was simultaneously performed with a control (vehicle alone) to exclude experimental drift in NO release unrelated to the administration of compounds.
# mu3 opiate receptor [2] = target: T1, mu3 opiate receptor; assay: biochemical; assay type: binding
# Procedure: Binding was studied in human granulocytes, normal lung, and non-small cell lung carcinoma tissue. The separate materials were washed and homogenized in 50 volumes of 0.32 M sucrose (pH 7.4) at 4° C. […] Briefly, aliquots of membrane suspensions from human granulocytes and lung non-small cell carcinoma (less 9% lymphocyte infiltrate) were incubated with non-radioactive compounds at six concentrations for 10 minutes at 22° C. and then with 40 nM of ^3H-dihydromorphine ([^3H]-DHM) for 60 minutes at 4° C. One hundred percent binding is defined as bound [^3H]-DHM in the presence of 10 μM dextrophan minus bound [^3H]-DHM in the presence of 10 μM levorphanol. The IC50 values are defined as the concentration of drug that elicits half-maximal inhibition of specific binding. The mean SEM for three experiments is given.
# mu3 opiate receptor [3] = target: T1, mu3 opiate receptor; assay type: cell-based; remark: listed apart in the source
# [4] = test system: estrogen surface receptor (ESR1); assay: Intracellular calcium (fura-2) in human arterial endothelial cells, estrogen compounds; assay type: cell-based; conditions: for effect of prior exposure on 17β-estradiol-induced [Ca^2+]i increase: tamoxifen 1 nM, ICI 182, 780 1 μM
# Procedure: Human arterial endothelial cells were purchased from Cell Systems (Eugene, Oregon) and grown at 37° C., 5% CO2 in chamber slides (Nunc Int.) with CS-C medium (Cell Systems) supplemented with 10% fetal calf serum and endothelial growth factor. Intracellular calcium levels were measured by dual emission microfluorimetry using the fluorescent dye fura-2/AM. Cells were loaded with the fluorescent ion indicator as follows. […] Cells were washed twice with PBS and then test drugs were added. […] Experiments were carried out at room temperature in PBS without calcium/magnesium. Receptor antagonists, when used, were administered 2 minutes prior to the respective agonist.
# Intracellular calcium levels in human arterial endothelial cells were monitored as described herein for the mu3 studies.
# [5] = test system: estrogen surface receptor (ESR1); assay: NO release from ITA fragments and cultured arterial endothelial cells, estrogen compounds; assay type: cell-based, human
# Text: Internal thoracic artery (ITA) segments were obtained from patients undergoing elective coronary artery bypass grafting (CABG) for atherosclerotic coronary artery disease. Patients with chronic illnesses, such as diabetes or cancer as well as acute processes (e.g., known infections, trauma), were excluded.
# Prior to measuring NO release, the cells were exposed to a concentration gradient of the various ligands.
# T1 sequence (P35372 1-314 isoform P35372-14): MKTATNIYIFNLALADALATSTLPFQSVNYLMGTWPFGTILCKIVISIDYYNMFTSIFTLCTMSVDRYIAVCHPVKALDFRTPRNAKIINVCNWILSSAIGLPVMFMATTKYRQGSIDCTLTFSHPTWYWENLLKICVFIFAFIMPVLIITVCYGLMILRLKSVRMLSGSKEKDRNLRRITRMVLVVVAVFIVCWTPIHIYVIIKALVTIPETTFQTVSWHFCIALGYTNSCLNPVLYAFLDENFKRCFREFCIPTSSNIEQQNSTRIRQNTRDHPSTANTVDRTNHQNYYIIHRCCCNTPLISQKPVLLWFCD
compound,measurement,setting,value
"CSCC[C@H](NC(=O)[C@H](Cc1ccccc1)NC(=O)CNC(=O)[C@@H](C)NC(=O)[C@@H](N)Cc1ccc(O)cc1)C(N)=O [DAMA, (D-Ala^2, Met^5)-enkephalinamide]",NO release at 4 minutes post morphine exposure,mu3 opiate receptor [1],5.2 ± 1.4 nM
same,effect of pre-treatment on morphine-induced NO release,"mu3 opiate receptor [1]; 1 nM peptide, vascular tissue, human monocytes, human granulocytes",prevented
same,inhibition of morphine-induced NO release,"mu3 opiate receptor [1]; 1 nM peptide, vascular tissue, 4 to 10 minute time points",significantly (P<0.05) inhibited
same,NO release at 4 minutes,"mu3 opiate receptor [1]; vascular tissue, DAMA alone 1 nM",0.0 nM
same,IC50,"mu3 opiate receptor [2]; GRANULOCYTES membranes, 40 nM [3H]-DHM, mean ± SEM, three experiments, read-out: Displacement of [3H]-DHM IC50",> 1000 nM
same,IC50,"mu3 opiate receptor [2]; LUNG CARCINOMA (non-small cell) membranes, 40 nM [3H]-DHM, mean ± SEM, read-out: Displacement of [3H]-DHM IC50",> 1000 nM
same,IC50,"mu3 opiate receptor [2]; NORMAL LUNG membranes, 40 nM [3H]-DHM, mean ± SEM, read-out: Displacement of [3H]-DHM IC50",> 1000 nM
same,stimulation of intracellular calcium level increases in endothelial cells,mu3 opiate receptor [3]; concentration range 1 pM to 1 μM,did not stimulate
Oc1ccc2c3c1O[C@H]1c4[nH]c5ccccc5c4C[C@@]4(O)[C@@H](C2)N(CC2CC2)CC[C@]314 [Naltrindole],NO release,mu3 opiate receptor [1],12.0 ± 3.4 nM
same,effect on the inhibition of morphine-induced NO release by DAMA,mu3 opiate receptor [1],blocked
"C[C@]12CC[C@@H]3c4ccc(O)cc4C[C@@H](CCCCCCCCC[S+]([O-])CCCC(F)(F)C(F)(F)F)[C@H]3[C@@H]1CC[C@@H]2O (stereo partly shown) [ICI 182, 780]",effect of prior exposure on 17β-estradiol-induced [Ca^2+]i increase,[4],not
same,effect of pre-treatment on 17β-estradiol-induced NO release,"[5]; ITA fragments and cultured arterial endothelial cells, tamoxifen 1 nM, ICI 182,780 1 nM, L-NAME 100 μM, 5 minutes before agonist",failed to inhibit
same,effect of pre-treatment on E2-BSA-induced NO release,"[5]; ITA fragments and cultured arterial endothelial cells, tamoxifen, ICI 182,780 1 nM, L-NAME 100 μM, 5 minutes before agonist",failed to inhibit
CN1CC[C@]23c4c5ccc(O)c4O[C@H]2[C@@H](O)CC[C@H]3[C@H]1C5 [Dihydromorphine],IC50,mu3 opiate receptor [2]; Displacement of [3H]-DHM IC50,33 nM and 27 nM and 28.5 nM
CC/C(=C(\c1ccccc1)c1ccc(OCCN(C)C)cc1)c1ccccc1 [Tamoxifen],effect of prior exposure on 17β-estradiol-induced [Ca^2+]i increase,[4],blocked
same,effect of pre-treatment on 17β-estradiol-induced NO release,[5],significantly diminished
same,effect of pre-treatment on E2-BSA-induced NO release,[5],blocked
C[C@]12CC[C@@H]3c4ccc(O)cc4CC[C@H]3[C@@H]1CC[C@@H]2O [17β-estradiol],[Ca^2+]i after leaching of intracellular calcium stores,"[4]; 17β-estradiol 1 nM, 3 hour Ca-free incubation, medium changed six times",3.8±0.6
same,EC50,[4]; stated with the [Ca^2+]i results,0.5 nM
same,NO release at 10 pM,[5],failed to stimulate a significant increase
same,NO release in Ca-leached endothelial cells,[5],1.8 ± 0.6 nM
same,NO release peak value,[5],16.1 nM
same,concentration of maximal effect on NO release,[5],1 nM
same,peak value of NO release (non-leached comparison),[5],16.0 ± 2.7 nM
same,response of ITA with endothelial lining scraped off,[5],non-responsive
same,time period of NO release,[5],10 min
same,time to peak of NO release,[5],≤ 2 min
C[C@]12CC[C@@H]3c4ccc(O)cc4CC[C@H]3[C@@H]1CC[C@H]2O [17α-estradiol],stimulation of NO release,[5],did not stimulate
"C[C@@H](NC(=O)[C@@H](N)Cc1ccc(O)cc1)C(=O)NCC(=O)N(C)[C@@H](Cc1ccccc1)C(=O)NCCO [DAMGO, (Tyr-D-Ala^2, Gly-N-Me-Phe^4, Gly(ol)^5)-enkephalin]",effect of pre-treatment on morphine-induced NO release,mu3 opiate receptor [1],prevented
same,effect on NO release (compound alone),mu3 opiate receptor [1],no effect
same,inhibition of morphine-induced NO release,mu3 opiate receptor [1],significantly (P<0.05) inhibited
same,stimulation of endothelial [Ca^2+]i increases,mu3 opiate receptor [3],did not stimulate
"CC(C)C[C@@H](NC(=O)[C@H](Cc1ccccc1)NC(=O)CNC(=O)[C@@H](C)NC(=O)[C@@H](N)Cc1ccc(O)cc1)C(=O)O [DADLE, (D-Ala^2, Leu^5)-enkephalin]",stimulation of intracellular calcium level increases in endothelial cells,mu3 opiate receptor [3],did not stimulate
"COC(=O)[C@@H](N)CCCNC(=N)N[N+](=O)[O-] [L-NAME, N omega-nitro-L-arginine methyl ester]",effect of pretreatment on morphine-induced NO release,mu3 opiate receptor [1]; human granulocytes,inhibited
